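Each compound was tested at five concentrations against cells in 96-well plates for 48 hours. The concentration for 50% growth inhibition is given as GI50.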 Calls of active or inactive are those of the source. Rule as the data show it: active = GI50 up to about 1.1 µM and inactive = higher.
Columns and labels:
Assay in all cases: inhibition of tumour cell growth, NCI panel, 48 h
786-0 = tested on: 786-0
BT-549 = tested on: BT-549
CAKI-1 = tested on: CAKI-1
EKVX = tested on: EKVX
HCT-116 = tested on: HCT-116
HL-60 = tested on: HL-60
HOP-62 = tested on: HOP-62
HOP-92 = tested on: HOP-92
K562 = tested on: K562
MDA-MB-435 = tested on: MDA-MB-435
MDA-N = tested on: MDA-N
MOLT-4 = tested on: MOLT-4
Malme-3M = tested on: Malme-3M
NCI-H23 = tested on: NCI-H23
OVCAR-5 = tested on: OVCAR-5
SK-MEL-5 = tested on: SK-MEL-5
SNB-75 = tested on: SNB-75
T47D = tested on: T47D
UACC-257 = tested on: UACC-257
UO-31 = tested on: UO-31

Compound	GI50 (786-0)	GI50 (BT-549)	GI50 (CAKI-1)	GI50 (EKVX)	GI50 (HCT-116)	GI50 (HL-60)	GI50 (HOP-62)	GI50 (HOP-92)	GI50 (K562)	GI50 (MDA-MB-435)	GI50 (MDA-N)	GI50 (MOLT-4)	GI50 (Malme-3M)	GI50 (NCI-H23)	GI50 (OVCAR-5)	GI50 (SK-MEL-5)	GI50 (SNB-75)	GI50 (T47D)	GI50 (UACC-257)	GI50 (UO-31)
COc1ccc2[nH]c(C(=O)N3CC(CCl)c4ccc(N)cc43)cc2c1 (stereo not drawn)	0.233 µM (active)	0.412 µM (active)	0.0877 µM (active)	0.368 µM (active)	0.164 µM (active)	0.0593 µM (active)	0.327 µM (active)	0.634 µM (active)	0.128 µM (active)	0.264 µM (active)	0.144 µM (active)	0.165 µM (active)	0.141 µM (active)	0.0726 µM (active)	0.316 µM (active)	0.0451 µM (active)	0.178 µM (active)	0.455 µM (active)	0.241 µM (active)	0.145 µM (active)
Cc1cccc2c(N)c3cccc(C(=O)NCC[N+](C)(C)Cc4sccc4[N+](=O)[O-])c3nc12	5.56 µM (inactive)	22 µM (inactive)	2.55 µM (inactive)	18.6 µM (inactive)	12.1 µM (inactive)	> 100 µM (inactive)	2.6 µM (inactive)	34.5 µM (inactive)	3.64 µM (inactive)	40.6 µM (inactive)	19.6 µM (inactive)	0.871 µM (active)	10.4 µM (inactive)	3.94 µM (inactive)	5.37 µM (inactive)	5.21 µM (inactive)	7.28 µM (inactive)	36.6 µM (inactive)	26.9 µM (inactive)	20.5 µM (inactive)
O=C1CSC(c2cccc(Cl)c2)N1c1ccc(-c2ccc(-n3c(-c4ccccc4)nc4ccccc4c3=O)cc2)cc1 (stereo not drawn)	43.6 µM (inactive)	28.5 µM (inactive)	> 100 µM (inactive)	59 µM (inactive)	45.6 µM (inactive)	21.8 µM (inactive)	67.8 µM (inactive)	17.1 µM (inactive)	35.6 µM (inactive)	52.1 µM (inactive)	47.9 µM (inactive)	20.1 µM (inactive)	46 µM (inactive)	58.5 µM (inactive)	64.6 µM (inactive)	25.5 µM (inactive)	–	24.3 µM (inactive)	80.5 µM (inactive)	21.6 µM (inactive)
CO[C@@H]1[C@@H](OC2OC(C)C(OC3CC(C)(O)C(OC(=O)CC(C)C)C(C)O3)C(N(C)C)C2O)[C@@H](CC=O)C[C@@H](C)C(=O)/C=C/C2O[C@H]2C[C@@H](C)OC(=O)C[C@H]1OC(C)=O (stereo partly drawn)	20 µM (inactive)	17.6 µM (inactive)	–	22.4 µM (inactive)	14.9 µM (inactive)	6.47 µM (inactive)	19 µM (inactive)	4.46 µM (inactive)	12.1 µM (inactive)	17.7 µM (inactive)	15.2 µM (inactive)	9.57 µM (inactive)	14 µM (inactive)	18.9 µM (inactive)	17.1 µM (inactive)	15.3 µM (inactive)	31.6 µM (inactive)	18.7 µM (inactive)	17.2 µM (inactive)	20.7 µM (inactive)
CCOC(=O)/C=C/c1cccc(F)c1	> 100 µM (inactive)	> 100 µM (inactive)	> 100 µM (inactive)	> 100 µM (inactive)	> 100 µM (inactive)	> 100 µM (inactive)	> 100 µM (inactive)	> 100 µM (inactive)	> 100 µM (inactive)	> 100 µM (inactive)	> 100 µM (inactive)	> 100 µM (inactive)	> 100 µM (inactive)	> 100 µM (inactive)	> 100 µM (inactive)	–	> 100 µM (inactive)	> 100 µM (inactive)	> 100 µM (inactive)	> 100 µM (inactive)
Cn1c(=O)c2c(nc3n(Cc4ccccc4)c(=O)c(Br)cn23)n(C)c1=O	> 100 µM (inactive)	> 100 µM (inactive)	> 100 µM (inactive)	> 100 µM (inactive)	> 100 µM (inactive)	> 100 µM (inactive)	80.5 µM (inactive)	> 100 µM (inactive)	> 100 µM (inactive)	> 100 µM (inactive)	> 100 µM (inactive)	> 100 µM (inactive)	–	> 100 µM (inactive)	> 100 µM (inactive)	> 100 µM (inactive)	> 100 µM (inactive)	> 100 µM (inactive)	> 100 µM (inactive)	> 100 µM (inactive)
C/C(=N\N=C1/C(=O)OC(c2ccccc2)=C1C(=O)c1ccccc1)c1ccc([N+](=O)[O-])cc1	68.7 µM (inactive)	25.9 µM (inactive)	48.2 µM (inactive)	36.3 µM (inactive)	91.4 µM (inactive)	35.8 µM (inactive)	> 100 µM (inactive)	20.5 µM (inactive)	35 µM (inactive)	46.7 µM (inactive)	87.9 µM (inactive)	19.9 µM (inactive)	37.4 µM (inactive)	92.9 µM (inactive)	72.3 µM (inactive)	37 µM (inactive)	–	42.9 µM (inactive)	> 100 µM (inactive)	44.7 µM (inactive)
Cc1c(O)nc(-n2[nH]c3c(c2=O)CCCC3)[nH]c1=O	> 100 µM (inactive)	> 100 µM (inactive)	> 100 µM (inactive)	> 100 µM (inactive)	> 100 µM (inactive)	> 100 µM (inactive)	–	> 100 µM (inactive)	> 100 µM (inactive)	> 100 µM (inactive)	> 100 µM (inactive)	> 100 µM (inactive)	> 100 µM (inactive)	> 100 µM (inactive)	> 100 µM (inactive)	> 100 µM (inactive)	–	> 100 µM (inactive)	> 100 µM (inactive)	> 100 µM (inactive)
CON(C)C(=O)CNC(=O)OCC1c2ccccc2-c2ccccc21	> 100 µM (inactive)	> 100 µM (inactive)	–	> 100 µM (inactive)	18.6 µM (inactive)	25.5 µM (inactive)	> 100 µM (inactive)	93.1 µM (inactive)	40.7 µM (inactive)	> 100 µM (inactive)	> 100 µM (inactive)	37.9 µM (inactive)	> 100 µM (inactive)	> 100 µM (inactive)	> 100 µM (inactive)	84.5 µM (inactive)	> 100 µM (inactive)	68.4 µM (inactive)	> 100 µM (inactive)	63.2 µM (inactive)
Cc1csc2nc(-c3ccc([N+](=O)[O-])cc3)c(/C=N/N=C(N)N)n12	1.94 µM (inactive)	0.189 µM (active)	4.73 µM (inactive)	1.39 µM (inactive)	1.81 µM (inactive)	1.85 µM (inactive)	1.7 µM (inactive)	< 0.01 µM (active)	1.81 µM (inactive)	1.64 µM (inactive)	1.8 µM (inactive)	–	1.53 µM (inactive)	1.64 µM (inactive)	1.52 µM (inactive)	1.91 µM (inactive)	1.58 µM (inactive)	2.79 µM (inactive)	1.91 µM (inactive)	1.49 µM (inactive)
O=C(NNC(=O)c1c(Cl)c(Cl)c(Cl)c(Cl)c1-c1nc2ccccc2[nH]1)c1ccc(Cl)cc1	51.8 µM (inactive)	46.1 µM (inactive)	40.6 µM (inactive)	44.2 µM (inactive)	46.3 µM (inactive)	36.1 µM (inactive)	61.9 µM (inactive)	24.6 µM (inactive)	35.8 µM (inactive)	24 µM (inactive)	21.3 µM (inactive)	38.9 µM (inactive)	89.3 µM (inactive)	40.6 µM (inactive)	> 100 µM (inactive)	38.3 µM (inactive)	38.5 µM (inactive)	21.7 µM (inactive)	–	30.3 µM (inactive)
Cc1ccc(S(=O)(=O)N2CCCN(S(=O)(=O)c3ccc(C)cc3)CCN(S(=O)(=O)c3ccc(C)cc3)CCCSCC2)cc1	45.2 µM (inactive)	> 100 µM (inactive)	–	> 100 µM (inactive)	> 100 µM (inactive)	> 100 µM (inactive)	54.5 µM (inactive)	> 100 µM (inactive)	> 100 µM (inactive)	> 100 µM (inactive)	> 100 µM (inactive)	> 100 µM (inactive)	–	> 100 µM (inactive)	> 100 µM (inactive)	> 100 µM (inactive)	> 100 µM (inactive)	> 100 µM (inactive)	–	> 100 µM (inactive)
Cc1cc(S(=O)(=O)n2ccnc2Oc2ccccc2)c(SSc2cc(Cl)c(C)cc2S(=O)(=O)n2ccnc2Oc2ccccc2)cc1Cl	93.3 µM (inactive)	> 100 µM (inactive)	> 100 µM (inactive)	5.31 µM (inactive)	> 100 µM (inactive)	2.32 µM (inactive)	–	> 100 µM (inactive)	> 100 µM (inactive)	> 100 µM (inactive)	> 100 µM (inactive)	–	57.5 µM (inactive)	–	> 100 µM (inactive)	24.9 µM (inactive)	1.01 µM (active)	> 100 µM (inactive)	> 100 µM (inactive)	> 100 µM (inactive)
CCN(CC)c1ccc(/C=C/C=C2C(=O)NC(=S)NC2=O)cc1	27.7 µM (inactive)	13.1 µM (inactive)	> 100 µM (inactive)	> 62.4 µM (inactive)	30.9 µM (inactive)	2.62 µM (inactive)	15.4 µM (inactive)	77.8 µM (inactive)	–	8.67 µM (inactive)	12.4 µM (inactive)	4.27 µM (inactive)	16.6 µM (inactive)	> 67.5 µM (inactive)	> 100 µM (inactive)	37.5 µM (inactive)	28.9 µM (inactive)	> 100 µM (inactive)	58.6 µM (inactive)	> 71.8 µM (inactive)

From ChEMBL document CHEMBL1201862, “PubChem BioAssay data set” (2004)
